The values that follow come from ChEMBL document CHEMBL1141107, “A novel series of non-carboxylic acid, non-hydantoin inhibitors of aldose reductase with potent oral activity in diabetic rat models: 6-(5-chloro-3-methylbenzofuran-2-sulfonyl)-2H-pyridazin-3-one and congeners” (J Med Chem, 2005).

For assay [1], the system named is Rattus norvegicus. As to the kind of experiment: Inhibition of sorbitol accumulation in diabetic rat by chronic test dosed at 10 mg/kg. It counts as functional.
The subject of assay [2] is Rattus norvegicus. Put plainly: Inhibition of fructose accumulation in diabetic rat after oral gavage administration incubated at RT for 60 minutes in pH 4.5 by acute test dosed at 3 mg/kg. It counts as functional. To be noted: 1 h.
In assay [3] the target is Aldo-keto reductase family 1 member B1 (Homo sapiens, UniProt P15121). As to the kind of experiment: In vitro inhibitroy concentration against Aldose reductase incubated at 24 degree C for 15 minutes in pH 7.0.
Assay [4] concerns Rattus norvegicus. As to the kind of experiment: Inhibition of fructose accumulation in diabetic rat after oral gavage administration incubated at RT for 60 minutes in pH 4.5 by acute test dosed at 1 mg/kg. It counts as functional. To be noted: 1 h.
Assay [5] deals with Rattus norvegicus. As to the kind of experiment: Inhibition of sorbitol accumulation in diabetic rat by acute test dosed at 1 mg/kg. It counts as functional.
For assay [6], the system named is Rattus norvegicus. Put plainly: Dose required for fructose accumulation in diabetic rat after oral gavage administration incubated at RT for 60 minutes in pH 4.5 by acute test. It counts as functional.
The subject of assay [7] is Rattus norvegicus. As to the kind of experiment: Inhibition of fructose accumulation in diabetic rat after oral gavage administration incubated at RT for 60 minutes in pH 4.5 by acute test dosed at 10 mg/kg. It counts as functional. Particulars: 1 h.
The test system of assay [8] is Rattus norvegicus. Put plainly: Inhibition of sorbitol accumulation in diabetic rat by acute test dosed at 10 mg/kg. It counts as functional.
The test system of assay [9] is Rattus norvegicus. As to the kind of experiment: Inhibition of sorbitol accumulation in diabetic rat by chronic test dosed at 3 mg/kg. It counts as functional.
The species named for assay [10] is Rattus norvegicus. As to the kind of experiment: Dose required for inhibition of sorbitol accumulation in diabetic rat by acute test. It counts as functional.
For assay [11], the species on record is Rattus norvegicus. As to the kind of experiment: Dose required for sorbitol accumulation in diabetic rat by chronic test. It counts as functional.
Assay [12] relates to Rattus norvegicus. Put plainly: Inhibition of fructose accumulation in diabetic rat after oral gavage administration, pH 4.5 by chronic test dosed at 10 mg/kg. It counts as functional.
The test system of assay [13] is Rattus norvegicus. Put plainly: Inhibition of sorbitol accumulation in diabetic rat by acute test dosed at 3 mg/kg. It counts as functional.
Assay [14] concerns Rattus norvegicus. As to the kind of experiment: Inhibition of sorbitol accumulation in diabetic rat by chronic test dosed at 1 mg/kg. It counts as functional.
The test system of assay [15] is Rattus norvegicus. Put plainly: Inhibition of fructose accumulation in diabetic rat after oral gavage administration, pH 4.5 by chronic test dosed at 3 mg/kg. It counts as functional.
Assay [16] has as its system Rattus norvegicus. Put plainly: Inhibition of fructose accumulation in diabetic rat after oral gavage administration, pH 4.5 by chronic test dosed at 1 mg/kg. It counts as functional.
Assay [17] is filed under the species Rattus norvegicus. Put plainly: Dose required for sorbitol accumulation in diabetic rat by chronic test.
Assay [18] concerns Rattus norvegicus. As to the kind of experiment: Dose required for fructose accumulation in diabetic rat after oral gavage administration incubated at RT for 60 minutes in pH 4.5 by acute test. To be noted: 1 h.
Assay [19] deals with Rattus norvegicus. As to the kind of experiment: Dose required for fructose accumulation in diabetic rat after oral gavage administration, pH 4.5 by chronic test. It counts as functional.

Turning to `Cc1c(S(=O)(=O)c2ccc(O)nn2)oc2ccc(F)cc12`, the inhibition in vivo at 10 mg/kg in assay [1] is 100%; in assay [7], 62%; in [8], 84%; in assay [12] it was 90%. The inhibition in vivo at 3 mg/kg came out at 42% in assay [2], 86% in assay [9], 66% in [13] and 64% in assay [15]. The IC50 in [3] is 3 nM. For the same molecule, the inhibition in vivo at 1 mg/kg turned out to be 11% in [4], 47% in assay [5], 52% in assay [14] and 17% in assay [16]. Besides, the figures for the ED50 in assay [6], in [10] and in [11] were 5.8 mg/kg, 1.2 mg/kg and 1 mg/kg, respectively.
With `Cc1c(S(=O)(=O)c2ccc(O)nn2)oc2ccc(C(F)(F)F)cc12`, the inhibition in vivo at 10 mg/kg in assay [1] is 102%; in [8], 101%; in [12], 100%. In addition, the inhibition in vivo at 3 mg/kg in assay [2] was 79%; in assay [9], 95%; in assay [13], 91%; in assay [15], 81%. In assay [3], this molecule yielded an IC50 of 5 nM. In addition, the inhibition in vivo at 1 mg/kg in [5] was 43%; in assay [14] it was 75%; in [16], 54%. In addition, the ED50 in [17] is less than 1 mg/kg; in assay [10] it was 1.3 mg/kg; in [18], 2 mg/kg; in assay [19] it was 1 mg/kg.
